ChEMBL document CHEMBL3612011, “Synthesis of new opioid derivatives with a propellane skeleton and their pharmacologies: Part 5, novel pentacyclic propellane derivatives with a 6-amide side chain” (Bioorg Med Chem, 2015)
Calls of active or inactive are those of the source. The rule behind the calls is not given here.

Tests used:
Mu-type opioid receptor = Mu-type opioid receptor (Cavia porcellus, UniProt P97266); assay: Displacement of [3H]DAMGO from MOR in guinea pig cerebellum membranes; format: cell membranes, Membrane
[1] = molecular target: Delta-type opioid receptor (Mus musculus, UniProt P32300); assay: Displacement of [3H]DPDPE from DOR in mouse whole brain membranes without cerebellum; format: cell membranes, Membrane
[2] = molecular target: Kappa-type opioid receptor (Mus musculus, UniProt P33534); assay: Displacement of [3H]U69,593 from KOR in mouse whole brain membranes without cerebellum; format: cell membranes, Membrane
[3] = Selectivity index, ratio of Ki for MOR in guinea pig cerebellum membranes to Ki for KOR in mouse whole brain membranes without cerebellum; format: cell membranes
Mus musculus [4] = organism: Mus musculus; assay: Selectivity index, ratio of Ki for DOR in mouse whole brain membranes without cerebellum to Ki for KOR in mouse whole brain membranes without cerebellum; format: cell membranes
[5] = molecular target: T1, Kappa-type opioid receptor (Homo sapiens, UniProt P41145); assay: Agonist activity at human KOR expressed in CHO cell membranes by [35S]GTPgammaS binding assay; format: functional
[6] = molecular target: T1, Kappa-type opioid receptor; assay: Agonist activity at human KOR expressed in CHO cell membranes by [35S]GTPgammaS binding assay relative to U69,593; format: functional
Mus musculus [7] = assay: Antinociceptive activity in ICR mouse assessed as reduction in acetic acid-induced abdominal writhing dosed subcutaneously 15 mins before acetic acid challenge; format: functional; conditions: Abdomen; for ED50: sc
Mus musculus [8] = organism: Mus musculus; assay: Induction of sedation in ICR mouse by spontaneous locomotor activity test; format: organism-based; conditions: in vivo
[9] = Therapeutic index, ratio of ED50 for induction of sedation in ICR mouse by spontaneous locomotor activity test to ED50 for antinociceptive activity in ICR mouse by acetic acid abdominal constriction test; format: organism-based, Abdomen; conditions: in vivo, read-out: Ratio ED50
Mus musculus [10] = assay: Antinociceptive activity in ICR mouse assessed as reduction in acetic acid-induced abdominal writhing dosed subcutaneously 15 mins before acetic acid challenge and treated 24 hrs after 10 mg/kg, sc KOR antagonist nor-Binaltorphimin dosing; format: functional, organism-based; conditions: Abdomen

Chain of Mu-type opioid receptor (P97266 whole entry): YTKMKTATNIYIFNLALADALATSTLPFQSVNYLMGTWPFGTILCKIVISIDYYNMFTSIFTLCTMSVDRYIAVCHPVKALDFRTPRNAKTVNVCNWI
Chain of Kappa-type opioid receptor (Mus musculus, UniProt P33534) (P33534 whole entry): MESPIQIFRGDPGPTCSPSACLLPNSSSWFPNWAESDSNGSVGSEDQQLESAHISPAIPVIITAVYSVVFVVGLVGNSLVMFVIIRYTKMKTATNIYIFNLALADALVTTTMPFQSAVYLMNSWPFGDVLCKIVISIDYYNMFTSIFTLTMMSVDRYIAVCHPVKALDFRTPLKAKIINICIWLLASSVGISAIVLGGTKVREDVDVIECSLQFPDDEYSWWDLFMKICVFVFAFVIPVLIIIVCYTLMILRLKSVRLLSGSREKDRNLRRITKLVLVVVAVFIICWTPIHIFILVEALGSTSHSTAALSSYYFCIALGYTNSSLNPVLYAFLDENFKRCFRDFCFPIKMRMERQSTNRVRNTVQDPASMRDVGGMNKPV
Chain of Delta-type opioid receptor (P32300 whole entry): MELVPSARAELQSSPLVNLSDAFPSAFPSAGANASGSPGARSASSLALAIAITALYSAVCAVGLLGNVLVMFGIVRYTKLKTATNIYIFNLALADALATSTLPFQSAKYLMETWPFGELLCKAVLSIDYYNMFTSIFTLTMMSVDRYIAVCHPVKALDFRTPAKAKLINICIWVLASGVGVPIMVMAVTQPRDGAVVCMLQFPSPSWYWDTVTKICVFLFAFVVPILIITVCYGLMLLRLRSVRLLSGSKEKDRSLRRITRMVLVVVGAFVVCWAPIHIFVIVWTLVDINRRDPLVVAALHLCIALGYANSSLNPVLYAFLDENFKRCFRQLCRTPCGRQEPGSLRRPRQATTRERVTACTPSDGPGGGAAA
T1 sequence (P41145 whole entry): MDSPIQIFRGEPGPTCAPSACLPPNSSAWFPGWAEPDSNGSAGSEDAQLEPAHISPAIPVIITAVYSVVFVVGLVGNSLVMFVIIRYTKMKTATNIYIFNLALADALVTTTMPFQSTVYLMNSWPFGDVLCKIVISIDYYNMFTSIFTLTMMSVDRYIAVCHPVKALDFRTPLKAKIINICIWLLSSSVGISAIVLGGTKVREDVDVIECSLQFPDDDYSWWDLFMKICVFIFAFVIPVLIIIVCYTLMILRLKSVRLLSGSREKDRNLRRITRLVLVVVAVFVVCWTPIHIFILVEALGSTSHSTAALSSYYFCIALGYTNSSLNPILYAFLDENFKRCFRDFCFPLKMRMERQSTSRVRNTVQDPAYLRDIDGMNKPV

Compound	Ki (Mu-type opioid receptor) [nM]	Ki [1] [nM]	Ki [2] [nM]	Ratio Ki [3]	Ratio Ki (Mus musculus [4])	EC50 [5] [nM]	Emax [6] [%]	inhibition (Mus musculus [7])	ED50 (Mus musculus [7]) [mg/kg]	ED50 (Mus musculus [8]) [mg/kg]	selectivity ratio [9]	inhibition (Mus musculus [10])
CN(C(=O)Cc1ccccc1)[C@@H]1C[C@@]23CCN(CC4CC4)[C@H]4CCC1C[C@]42Cc1ccc(O)cc13 (single isomer, unassigned)	0.197	1.19	0.136	1.45	8.75	–	–	–	–	–	–	–
CN(C(=O)CCc1ccccc1)[C@H]1C[C@@]23CCN(CC4CC4)[C@H]4CCC1C[C@]42Cc1ccc(O)cc13 (single isomer, unassigned)	11.5	32.4	11.9	0.966	2.72	–	–	–	–	–	–	–
CN(C(=O)CCc1ccccc1)[C@@H]1C[C@@]23CCN(CC4CC4)[C@H]4C=C[C@@H]1C[C@]42Cc1ccc(O)cc13	0.51	3.52	0.47	1.09	7.49	–	–	–	–	–	–	–
CN(C(=O)c1ccccc1)[C@@H]1C[C@@]23CCN(CC4CC4)[C@H]4C=C[C@@H]1C[C@]42Cc1ccc(O)cc13	2.7	2.23	4.46	0.61	0.5	–	–	–	–	–	–	–
CN(C(=O)CCc1ccccc1)[C@H]1C[C@@]23CCN(CC4CC4)[C@H]4C=C[C@@H]1C[C@]42Cc1ccc(O)cc13	4.36	10.7	1.86	2.34	5.75	–	–	–	–	–	–	–
CN(C(=O)c1ccccc1)[C@H]1C[C@@]23CCN(CC4CC4)[C@H]4CCC1C[C@]42Cc1ccc(O)cc13 (single isomer, unassigned)	56	1.27	13.8	4.06	0.092	–	–	–	–	–	–	–
CN(C(=O)/C=C/c1ccoc1)[C@H]1C[C@@]23CCN(CC4CC4)[C@H]4CC[C@@H]1C[C@]42Cc1ccc(O)cc13	47.9	19.1	8.36	5.73	2.28	–	–	–	–	–	–	–
CN(C(=O)c1ccccc1)[C@@H]1C[C@@]23CCN(CC4CC4)[C@H]4CCC1C[C@]42Cc1ccc(O)cc13 (single isomer, unassigned)	0.28	3.65	0.543	0.516	6.72	–	–	–	–	–	–	–
CN(C(=O)Cc1ccccc1)[C@H]1C[C@@]23CCN(CC4CC4)[C@H]4C=C[C@@H]1C[C@]42Cc1ccc(O)cc13	12.2	4.5	1.73	7.05	2.6	–	–	–	–	–	–	–
CN(C(=O)/C=C/c1ccoc1)[C@H]1C[C@@]23CCN(CC4CC4)[C@H]4C=C[C@@H]1C[C@]42Cc1ccc(O)cc13.Cl	13.9	14.2	0.82	17	17.3	11.8	108	Dose-dependent effect	0.589	7.74	13.1	inactive
CN(C(=O)/C=C/c1ccoc1)[C@@H]1C[C@@]23CCN(CC4CC4)[C@H]4C=C[C@@H]1C[C@]42Cc1ccc(O)cc13	0.57	3.98	0.23	2.48	17.3	–	–	–	–	–	–	–
CN(C(=O)Cc1ccccc1)[C@H]1C[C@@]23CCN(CC4CC4)[C@H]4CCC1C[C@]42Cc1ccc(O)cc13 (single isomer, unassigned)	59.6	15	11	5.42	1.36	–	–	–	–	–	–	–
CN(C(=O)Cc1ccccc1)[C@@H]1C[C@@]23CCN(CC4CC4)[C@H]4C=C[C@@H]1C[C@]42Cc1ccc(O)cc13	0.42	1.66	0.24	1.75	6.92	–	–	–	–	–	–	–
CN(C(=O)CCc1ccccc1)[C@@H]1C[C@@]23CCN(CC4CC4)[C@H]4CCC1C[C@]42Cc1ccc(O)cc13 (single isomer, unassigned)	0.229	1.15	0.113	2.03	10.2	–	–	–	–	–	–	–
CN(C(=O)/C=C/c1ccoc1)[C@@H]1CC[C@@]2(O)[C@H]3Cc4ccc(O)c5c4[C@@]2(CCN3CC2CC2)[C@H]1O5.Cl [NALFURAFINE HYDROCHLORIDE]	–	–	–	–	–	–	–	–	0.00622	0.0344	–	–
CN(C(=O)/C=C/c1ccoc1)[C@@H]1C[C@@]23CCN(CC4CC4)[C@H]4CC[C@@H]1C[C@]42Cc1ccc(O)cc13	0.232	0.182	0.204	1.14	0.89	–	–	–	–	–	–	–
CN(C(=O)c1ccccc1)[C@H]1C[C@@]23CCN(CC4CC4)[C@H]4C=C[C@@H]1C[C@]42Cc1ccc(O)cc13	47.6	6.46	13.1	3.63	0.493	–	–	–	–	–	–	–
